# Assay results taken from patent EP0748793A1, “KETOPANTHENOL WITH ACETYLATING PROPERTIES” (TOVARISCHESTVO S OGRANICHENNOI OTVETSTVENNOSTJU " PANT", priority 1994, dated 1995).
# Entries after “also recorded” stand apart in the source; their conditions may differ.
# Legend:
# [1] = tested on: acetylation of aromatic amines (N-acetylation); assay: Acetylating properties of the organism: acetylation of sodium sulfacyl, arylamines determined in urine; type: in vivo, white rats; details: for % of excretion from the dose, In acetylated form / % of excretion from the dose, In free form / Acetylating properties of the organism: Na sulfacyl acetylating in the organism of rats; for Concentration in urine, In acetylated form / Concentration in urine, In free form: Na sulfacyl in rat urine; for Na sulfacyl excretion, Sulfacyl isolation M ± m, In acetylated form / Na sulfacyl excretion, Sulfacyl isolation M ± m, In free form / Na sulfacyl excretion, Sulfacyl isolation M ± m, Total / Na sulfacyl excretion, Excretion % from the dose: rats; for Na sulfacyl excretion, Sulfacyl isolation M ± m, In acetylated form / Na sulfacyl excretion, Sulfacyl isolation M ± m, In free form / Na sulfacyl excretion, Sulfacyl isolation M ± m, Total: agent i.p. for 4 days, then Na sulfacyl 20 mg/kg i.p., urine; for Na sulfacyl excretion, Excretion % from the dose: total sulfacyl in urine relative to the sulfacyl dose
# Description: The level of the organism supply with a vitamin is determined by the study of the reaction of acetylation of exogenous aromatic amines. The total acetylating properties of the organism were assessed by the method of quantitative determination of the content of arylamines in the examined substrate (urine).
# Sodium sulfacyl was chosen as the substance for acetylation.
# The influence of 4-days of injections of ketopanthenol on the acetylating properties of white rats was examined during the experiments.
# The experiments were carried out using mongrel pubescent male rats. 14 animals were included in each group. The examined agent was injected intraperitoneally in a dose of 29 mg/kg. On the 4th day 4 hours after the last injection of the examined agent the sodium sulfacyl solution in a dose of 20 mg/kg was injected intraperitoneally. All the rats were separated into exchangeable cages for urine gathering. The resulting data were compared with the control groups (group I - only received sodium sulfacyl in a dose of 20 mg/kg, and group II received calcium D-pantothenate).
# The average weight of the animals in the group fluctuated within 154.7 ± 10.8 g, the absolute dose of sodium sulfacyl was 3.09 ± 0.14 mg.
# in vivo = details: mouse, po
# Description: (§1) To determine acute toxicity of ketopanthenol, non-linear white mice of both sexes with the average mass of 19 ± 3 g were used. There were 72 mice in the experiment, the animals were divided into 12 groups, 6 animals in each group. The mice of the first 6 groups received ketopanthenol in 0.2 ml of distilled water once internally in doses: 20.0, 21.0, 22.0, 23.0, 24.0 and 25.0 g/kg.
# (§2) The 12 group was the control one, the mice of this group received once internally only 0.2 ml of distilled water.
# (§3) The mice were under observation for 14 days.
# (§4) The LD50 calculations were carried out according to Kerber
# non-linear white rats = assay: Subchronic toxicity and local irritating effect, 2 months daily dosing, mass growth; type: in vivo
# Description: The study of subchronic toxicity and the local irritating effect of ketopanthenol.
# In the experiment carried out for 2 months, non-linear white rats of both sexes with the average initial weight of 75 ± 3.3 g were used. The animals were divided into 7 groups. The first three groups received daily, during the whole experimental period, ketopanthenol in 0.2 ml of distilled water in doses of 13.2 mg/kg (which corresponds to the therapeutic dose of vitamin B3), 132.0 and 264 mg/kg (in doses 10 and 20 times larger than the therapeutic dose). […] The animals of the seventh group were used as control, receiving internally 0.2 ml of distilled water daily.
# During the whole experiment the animals were weighed once a week and the observation on their development, state and behavior was carried out.
# non-linear white mice = assay: in vivo; details: mouse
# Description: as §1, §2, §3, §4
# Solubility in solvents = type: physicochemical
# [2] = tested on: conjunctive bag of the eye; assay: Eye irritation, aqueous solution dripped into the conjunctive bag; type: in vivo; details: eye of 5 rabbits, three days
# From the text: The aqueous solution of ketopanthenol was dripped into the conjunctive bag of the eye of 5 rabbits weighing 2.5 ± 0.3 kg for three days.
# [3] = dose 10 times larger than the therapeutic dose (132.0 mg/kg), 2 months
# [4] = dose 20 times larger than the therapeutic dose (264 mg/kg), 2 months
# [5] = rats, 13.2 mg/kg daily, 2 months
# [6] = rats, 132.0 mg/kg daily, 2 months
# [7] = rats, 264.0 mg/kg daily, 2 months
# [8] = therapeutic dose (13.2 mg/kg), 2 months
SMILES,"% of excretion from the dose, In acetylated form [1] [%]","% of excretion from the dose, In free form [1] [%]",Acetylating properties of the organism [1],"Concentration in urine, In acetylated form [1] [mg/mL]","Concentration in urine, In free form [1] [mg/mL]","Na sulfacyl excretion, Sulfacyl isolation M ± m, In acetylated form [1]","Na sulfacyl excretion, Sulfacyl isolation M ± m, In free form [1]","Na sulfacyl excretion, Sulfacyl isolation M ± m, Total [1]","Na sulfacyl excretion, Excretion % from the dose [1] [%]",MTD at 336 h (in vivo) [mg/kg],"growth of the mass of the rats, higher in comparison with the control animals (non-linear white rats; [3]) [%]","growth of the mass of the rats, higher in comparison with the control animals (non-linear white rats; [4]) [%]",Mass growth during the experiment (non-linear white rats; [5]) [g],"Mass growth during the experiment, % to the control (non-linear white rats; [5]) [%]","Mass, Final (non-linear white rats; [5])",Mass growth during the experiment (non-linear white rats; [6]) [g],"Mass growth during the experiment, % to the control (non-linear white rats; [6]) [%]","Mass, Final (non-linear white rats; [6])",Mass growth during the experiment (non-linear white rats; [7]) [g],"Mass growth during the experiment, % to the control (non-linear white rats; [7]) [%]",further results
"CC(C)(CO)[C@@H](O)C(=O)NCCC(=O)O [D (+) pantothenate Ca, calcium D-pantothenate, reference compound]",22.3 ± 1.8,70.7 ± 6.0,24.0,0.172,0.54,0.67 ± 0.04,2.12 ± 0.09,2.79 ± 0.19,93.0,–,–,–,–,–,–,–,–,–,–,–,–
"CC(C)(CO)[C@@H](O)C(=O)NCCCO [D-panthenol, D-pantothenyl alcohol, reference compound]",–,–,–,–,–,–,–,–,–,21000,9.3,5.2,129.5 ± 8.5,108.0,202.0 ± 16.4,131.1 ± 8.5,109.3,205.1 ± 16.0,126.1 ± 9.3,105.2,"Mass, Final (non-linear white rats; [7]): 197.3 ± 18.8; growth of the mass of the rats, higher in comparison with the control animals (non-linear white rats; [8]): 8.0%"
CC(C)(CO)C(=O)C(=O)NCCCO [ketopanthenol],32.0 ± 2.3,62.1 ± 2.9,34.0,0.36,0.71,0.99 ± 0.4,1.92 ± 0.09,2.91 ± 0.21,94.2,21000,12.0,6.5,132.7 ± 10.7,103.72,210.7 ± 18.1,134.3 ± 8.4,112.0,209.5 ± 22.5,127.7 ± 11.0,106.5,"LD50 at 336 h (in vivo): 23500 mg/kg; dose from which mice lost mobility, had quickened breathing, inertia, narrowed eye slots (non-linear white mice): ≥ 22000 mg/kg; LD100 (non-linear white mice; 20160 min): 25000 mg/kg; solubility (Solubility in solvents; in ether): poor solubility; solubility (Solubility in solvents; in water, alcohols, acetone, chloroform): good solubility; excretion of the sulfacyl in its free form, lower ([1]; compared with the series I (control)): 20%; increase of the acetylating properties of the organism ([1]; in comparison with calcium D-pantothenate): 1.5 times; increase of the excretion of the acetylated product ([1]; in comparison with group II (calcium D-pantothenate)): 1.7 times; increase of the acetylating properties of the organism ([1]; in comparison with the control): 3.6 times; increase of the excretion of the acetylated product ([1]; in comparison with the control group): 4 times; Mass, Final (non-linear white rats; [7]): 200.1 ± 12.3; changes in development, state and behavior of the animals (non-linear white rats; rats, 2 months, in comparison with the control rats): No changes; toxic influence on the animals' organism (non-linear white rats; rats, prolonged period (2 months)): no toxic influence; also recorded: no toxic effect; local irritating effect (non-linear white rats; rats, visual examination of the internal organs after slaughtering): no local irritating effect was observed; growth of the mass of the rats, higher in comparison with the control animals (non-linear white rats; [8]): 10.7%; irritating effect [2]: No irritating effect was observed"
